{"source": "patent US20060002934A1", "about": "(priority 2002, published 2006)", "assay_type_in_all_cases": "cell-based, human", "key": {"[1]": {"test_system": "p8-EcadEGFP expressing MDA-MB-435S cells", "test": "Time-lapse imaging of motility and E-cadherin localization, p8-EcadEGFP transfectants", "conditions": "EGF 100 ng/ml", "method": "(§1) For time-lapse laser scanning microscopy, cells were cultivated overnight in a microscope-coupled incubation chamber (Zeiss, Jena, Germany) at 37 °C under 5% CO2. Cells were seeded at a density of 1×10^5 cells per 3.5-cm in collagen I-coated plates with a glass bottom which were purchased from MatTek Corporation (Ashland, Mass., USA). Uncoated plates were coated for 4 h at 37° C. with collagen I (100 μg/ml). EGFR kinase inhibitor Tyrphostin AG 1478 (Sigma, Deisenhofen, Germany) was used at a final concentration of 6.3 μM. […] Phase contrast images were taken at 2-3 min intervals with an Axiovert laser scanning microscope LSM 510 (Zeiss) with lens PNF 63× (oil) and an argon laser at 488 nm with a transmission filter of 515 nm.\n(§2) To investigate the temporal localization of mutant E-cadherin during cell migration, EcadEGFP transfected cells were cultivated in an incubation chamber coupled with a Zeiss Axiovert 100 microscope. Cells transfected with the vector pEGFP-N2 Vektor or the different EcadEGFP constructs (wt-EcadEGFP and p8-EcadEGFP), were seeded on collagen I coated dishes with glas bottom."}, "[2]": {"test_system": "MDA-MB-435S cells expressing wt E-cadherin", "test": "Cell motility by time-lapse laser scanning microscopy, wt E-cadherin transfectants", "method": "For time-lapse laser scanning microscopy, cells were cultivated in a microscope-coupled incubation chamber (Zeiss, Jena, Germany) at 37° C. under 5% CO2. Cells were seeded at a density of 2×10^5 cells per 3.5-cm in plates with a glass bottom which were purchased either uncoated or coated with poly-lysine from MatTek Corporation (Ashland, Mass., USA). Uncoated plates were coated for 4 h at 37° C. with collagen I (100 μg/ml, Sigma, Deisenhofen, Germany) or overnight at 4° C. with fibronectin (10 μg/ml, Sigma) or vitronectin (10 μg/ml, Becton Dickinson, Bedford, USA). Kinase inhibitors were used at final concentrations of 50 μM (PD 98059, Sigma, Deisenhofen, Germany), 40 μM (LY 294002, Calbiochem, Schwalbach, Germany), or 6.3 μM (Tyrphostin AG 1478, Sigma).\nPhase contrast images were taken at 3 min intervals with an Axiovert laser scanning microscope LSM 510 (Zeiss) with lens PNF 20×/0.4 PH2 and a helium-neon laser at 543 nm in transmission scanning mode. The percentage of motile cells was measured by drawing the outlines of cells on the screen and counting the cells which moved completely out of the initial area within the recording time of 7 h. […]\nCells were brought in suspension by disruption of cell-cell and cell-matrix interactions and seeded on glass plates precoated with collagen type 1. Cell motility was analyzed by long-term recordings of a duration of 7 h starting 2 h after plating using a laser scanning microscope coupled with a temperature- and CO2-controlled incubation chamber. […]\nIt has been shown for a number of cell lines that the motile behavior of individual cells is variable and therefore it is advisable to investigate a large number of cells to obtain a reliable determination of cellular velocity (Hartmann-Petersen, Cytometry 40 (2000), 260-270). In order to determine the motility of individual cells, the center of the nucleus was semiautomatically traced and the speed of 60 cells per cell line derived from at least three independent experiments was calculated. […]"}, "[3]": {"test_system": "wt-EcadEGFP expressing MDA-MB-435S cells", "test": "Time-lapse imaging of motility and E-cadherin localization, wt-EcadEGFP transfectants", "conditions": "wt-EcadEGFP cells, serum starved overnight, EGF 100 ng/ml; 10 cells, 4 h", "method": "as §1, §2"}}, "note": "“Also recorded” adds a separate entry of the source."}
{"substance": "epidermal growth factor [EGF]", "values": [{"measurement": "effect on the motility of p8-EcadEGFP transfected cells", "setting": "[1]; p=0,364 Kruskal Wallis Test", "value": "only minor effects"}, {"measurement": "cell paths (range)", "setting": "[1]; p8-EcadEGFP cells, serum starved overnight, 10 cells, 4 h", "value": "19,7-97,2 μm"}, {"measurement": "localization of p8-EcadEGFP", "setting": "[1]; serum starved", "value": "detectable at the cell edges and in lamellipodiae and at cell cell contact sites; also recorded: no influence"}, {"measurement": "percentage of motile cells", "setting": "[2]; wt E-cadherin cells on collagen I, 7 h, EGF 100 ng/ml", "value": "increased to the level of del 8 E-cadherin expressing cells"}, {"measurement": "cellular motility", "setting": "[2]; wt E-cadherin cells, EGF treatment", "value": "enhanced cellular motility"}, {"measurement": "cell morphology", "setting": "[2]; wt or del 8 E-cadherin cells on collagen I, 2 h after plating, EGF 100 ng/ml (FIG. 5C)", "value": "developed filopodia and lost cell to cell contacts"}, {"measurement": "cell motility (range of cell speeds)", "setting": "[3]", "value": "3,8-15,6 μm/h"}, {"measurement": "cell paths (range)", "setting": "[3]", "value": "15,1-62,4 μm"}]}
